The results in this text go back to PMC13047053, “Crystal structure of human INPP5K with an allosteric inhibitor reveals the structural basis for species specific potency” (Scientific Reports, 2026).

Each structure is given as a SMILES string. Entries after “also recorded” stand apart in the source; their conditions may differ. Bounds are passed on as bounds.

Holding throughout (assay): Inorganic phosphate detection assay for phosphatase inhibition
Common to all, as to format: biochemical

One assay addresses T1, human INPP5K (Homo sapiens, UniProt Q9BT40).
T1 construct: full-length human INPP5K (amino acids 1–448, UniProt ID: Q9BT40); FLAG (N); made in house; host or cells: Expi293 cells (pcDNA3.4, transient)
T1 sequence (Q9BT40 1-448): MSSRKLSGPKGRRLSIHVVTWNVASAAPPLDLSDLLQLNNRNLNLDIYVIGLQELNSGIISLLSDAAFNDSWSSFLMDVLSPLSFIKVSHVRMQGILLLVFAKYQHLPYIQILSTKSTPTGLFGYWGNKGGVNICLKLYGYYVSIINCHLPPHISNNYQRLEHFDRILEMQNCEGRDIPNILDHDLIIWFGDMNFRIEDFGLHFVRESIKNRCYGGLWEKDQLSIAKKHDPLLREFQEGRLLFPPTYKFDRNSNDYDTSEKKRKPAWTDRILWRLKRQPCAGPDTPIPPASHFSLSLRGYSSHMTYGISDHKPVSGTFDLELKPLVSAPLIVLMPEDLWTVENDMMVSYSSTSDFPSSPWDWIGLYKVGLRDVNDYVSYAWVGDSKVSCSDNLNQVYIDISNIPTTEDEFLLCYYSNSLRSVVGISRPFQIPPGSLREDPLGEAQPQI
From the text: (§1) The protein purification is described in detail elsewhere. Briefly, full-length human INPP5K (amino acids 1–448, UniProt ID: Q9BT40), rat INPP5K (aa 1–446, UniProt ID: Q9R0B6), mouse INPP5K (aa 1–468, UniProt ID: Q8C5L6), hamster INPP5K (aa 1–453, UniProt ID: G3HTF6), guinea pig INPP5K (aa 1–473, UniProt ID: H0V8T7) containing an N-terminal FLAG-tag, full-length human SHIP2 (aa 1–1 258) containing a C-terminal FLAG-tag, and full-length human PIPP (amino acids 1–1 006) containing an N-terminal His8-tag were all cloned into the pcDNA3.4 expression vector and transiently expressed in Expi293 cells (Thermo Fisher Scientific). The PH domain of human TAPP1 (amino acids 180–404) containing an N-terminal GST-tag was expressed in a pGEX6P1 expression vector (GE Healthcare) in E. coli strain BL21 ((Merck KGaA, Darmstadt, Germany)), following IPTG induction at 37 °C for 5 h. All the FLAG-tagged INPP5Ks and hSHIP2 were purified using affinity columns containing DDDDK-tagged protein purification gel (MBL, Medical & Biological Laboratories Co., Ltd., Tokyo, Japan), followed by size-exclusion chromatography with Superdex 200 columns (GE Healthcare). His8-tagged hPIPP was purified using Ni–NTA Superflow (Qiagen) and Superdex 200 columns. The GST-tagged hTAPP1 domain was purified using a Glutathione Sepharose 4B (GE Healthcare) and Superdex 200 columns. The purity of the protein obtained was evaluated using SDS-PAGE.
(§2) The release of inorganic phosphate was measured using a PiPer Phosphate Assay Kit (Thermo Fisher Scientific), according to the manufacturer’s instructions, but with some modifications. Enzyme reactions were performed in a final volume of 10 µL per well in a 384-well nonbinding black plates (Greiner Bio-One International, GmbH, Kremsmünster, Austria). The reaction mixtures containing 20 µM diC8-PI(3,4,5)P₃ and each enzyme (human INPP5K, mouse INPP5K, rat INPP5K, hamster INPP5K, guinea pig INPP5K, human SHIP2, or human PIPP) in reaction buffer (50 mM Tris–HCl pH 7.0, 150 mM NaCl, 7.5 mM MgCl₂, 0.03% Igepal CA-630, 0.03% gelatin), with or without various concentrations of inhibitor, were incubated for 20 min at room temperature. The reactions were then stopped and detection reactions were initiated by adding 5 µL of detection mix 1 (60 mM EDTA, 12 U/mL maltose phosphorylase, and 0.6 mM maltose in 100 mM Tris–HCl pH 8.0). After incubation for 60 min at room temperature, 5 µL of detection mix 2 (8 U/mL glucose oxidase, 0.8 U/mL HRP, and 100 µM Amplex Red in 100 mM Tris–HCl pH 8.0) was added, and the mixture was incubated for a further 30 min at room temperature in the dark. The fluorescence generated was measured using an Envision plate reader at 531/590 nm (excitation/emission), and the percentage inhibition was calculated as described above.

For a further assay, the target named is T2, mouse INPP5K (Mus musculus, UniProt Q8C5L6).
T2 construct: mouse INPP5K (aa 1–468, UniProt ID: Q8C5L6); FLAG (N); made in house; host or cells: Expi293 cells (pcDNA3.4, transient)
T2 sequence (Q8C5L6 1-468): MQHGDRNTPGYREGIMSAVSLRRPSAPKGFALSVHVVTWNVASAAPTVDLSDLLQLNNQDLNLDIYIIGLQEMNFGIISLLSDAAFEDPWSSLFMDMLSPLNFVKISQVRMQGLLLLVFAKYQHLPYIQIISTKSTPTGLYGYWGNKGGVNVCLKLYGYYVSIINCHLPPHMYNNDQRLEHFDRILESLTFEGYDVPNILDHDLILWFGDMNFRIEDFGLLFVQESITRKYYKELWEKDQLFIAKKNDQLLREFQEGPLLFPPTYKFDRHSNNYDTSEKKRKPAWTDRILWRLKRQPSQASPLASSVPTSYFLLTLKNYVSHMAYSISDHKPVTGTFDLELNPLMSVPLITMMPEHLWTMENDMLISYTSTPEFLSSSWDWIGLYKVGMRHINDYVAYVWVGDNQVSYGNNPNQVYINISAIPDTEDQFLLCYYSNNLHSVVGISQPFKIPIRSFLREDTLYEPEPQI
Text: as §1, §2

The target in a further assay is T3, rat INPP5K (Rattus norvegicus, UniProt A0A0G2K2Z2).
T3 construct: rat INPP5K (aa 1–446, UniProt ID: Q9R0B6); FLAG (N); made in house; host or cells: Expi293 cells (pcDNA3.4, transient)
T3 sequence (A0A0G2K2Z2 1-446): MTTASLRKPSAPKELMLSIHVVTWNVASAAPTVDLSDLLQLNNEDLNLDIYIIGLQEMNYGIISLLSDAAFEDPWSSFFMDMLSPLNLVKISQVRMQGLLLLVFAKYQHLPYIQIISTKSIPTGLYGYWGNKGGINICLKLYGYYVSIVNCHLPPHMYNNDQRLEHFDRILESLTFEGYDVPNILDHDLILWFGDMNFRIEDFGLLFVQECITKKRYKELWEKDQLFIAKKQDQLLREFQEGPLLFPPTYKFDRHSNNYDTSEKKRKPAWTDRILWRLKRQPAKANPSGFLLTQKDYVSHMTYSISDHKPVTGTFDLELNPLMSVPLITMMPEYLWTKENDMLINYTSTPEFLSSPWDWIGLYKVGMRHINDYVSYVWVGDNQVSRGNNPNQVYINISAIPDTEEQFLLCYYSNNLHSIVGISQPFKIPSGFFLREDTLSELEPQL
Text: as §1, §2

[1] abbreviates: inorganic phosphate detection assay, 20 µM diC8-PI(3,4,5)P3, 20 min.

`CC(C)c1sc(NC(=O)c2ccccc2)c(C(=O)O)c1-c1ccccc1` [CPD-1]: the IC50 was 2.9 µM on human INPP5K (setting [1]), > 100 µM against mouse INPP5K (setting [1]) and > 100 µM on rat INPP5K (setting [1]). Moreover, on human INPP5K (result in words), the “mode of inhibition of human INPP5K” value was “noncompetitive inhibition; also recorded: noncompetitive inhibitor”. In addition, on mouse INPP5K (result in words), the “inhibition of mouse INPP5K (in words)” value was “no inhibition; also recorded: inactive”. On rat INPP5K (result in words), the “inhibition of rat INPP5K (in words)” value was “no inhibition; also recorded: inactive”.

What is called IC50 is the concentration needed to halve the response being measured. Lower therefore signals inhibition by little substance.
